The series is classed as in vivo, Sprague–Dawley (SD) rats. Particulars: rat plasma, single oral gavage of 10 mL/kg ABS, n = 6.

Molecules are shown by their SMILES.

Description: All rats underwent an acclimation period of a week and overnight fasting with free access to water only. Rats were randomly selected and administered the ABS (n = 6, biological replicates). Each rat was administered with a single ABS oral gavage dose of 10 mL/kg. Blood samples (approximately 150 μL) were collected from the orbital venous plexus using heparinized tubes at predefined time points (0, 0.033, 0.083, 0.167, 0.25, 0.5, 0.75, 1, 2, 4, 6, 8, 10, 12, 24, 36, 48, and 60 h) post-administration. The technical personnel were proficiently trained in performing orbital venous plexus blood draws, employing a technique designed to minimize discomfort to the animals. All rats received an intragastric administration of 1 mL saline at 6 h post-dosing, after which they were provided with unrestricted access to food and water for the remainder of the experimental period. […]
Chromatographic separation was performed on a Thermo BDS Hypersil C18 column (100 × 4.6 mm, 3 µm) with linear gradient elution at a flow rate of 0.7 mL/min using methanol and water both containing 0.1% acetic acid as the mobile phases A and B, respectively. […] The quantification analysis was conducted under multiple reaction monitoring mode with argon collision gas pressure set at 0.2 Pa for collision-induced dissociation. […]

A word on the Tmax: it is the time at which the peak concentration occurs. Take `O=C1C[C@@H](c2ccc(O[C@@H]3O[C@H](CO)[C@@H](O)[C@H](O)[C@H]3O)cc2)Oc2cc(O)ccc21` [LI, liquiritin]: the time to peak (Tmax) turned out to be 0.20 ± 0.03 h.

`Cc1cc(O)c2c(c1)C(=O)c1cc(O)cc(O)c1C2=O` [EM, emodin] had a t1/2 of 4.63 ± 1.53 h.

The record behind these values is PMC13028611, “Hepatotoxicity Assessment of Anshenbunao Syrup by Multi-Component Quantification In Vivo/In Vitro and Cell Biological Evaluations” (Pharmaceuticals, 2026).
